Consider 25 compounds from patent US9988397B2, “ERK inhibitors” (Merck Sharp & Dohme Corp., priority 2014, dated 2018).

For the experiment, the target named is phosphorylated active hERK2 enzyme (Homo sapiens, UniProt P28482). Briefly: Active human ERK2 (hERK2) Activity Assay (IMAP-FP). As to conditions: 10 point titration, 3 μM starting concentration, 0.5 nM hERK2, 30 μM ATP, 60 minutes reaction. Format: biochemical.
Chain of phosphorylated active hERK2 enzyme (P28482 whole entry): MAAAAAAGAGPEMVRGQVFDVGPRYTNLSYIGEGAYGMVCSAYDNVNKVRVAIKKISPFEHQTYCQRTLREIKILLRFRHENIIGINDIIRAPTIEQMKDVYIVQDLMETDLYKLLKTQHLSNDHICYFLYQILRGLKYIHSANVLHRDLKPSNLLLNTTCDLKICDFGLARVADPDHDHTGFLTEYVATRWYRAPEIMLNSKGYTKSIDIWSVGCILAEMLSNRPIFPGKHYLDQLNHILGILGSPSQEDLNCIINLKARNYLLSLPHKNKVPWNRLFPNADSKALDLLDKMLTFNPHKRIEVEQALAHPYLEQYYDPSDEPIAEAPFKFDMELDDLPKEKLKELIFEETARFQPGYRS
Procedure: Activated ERK2 activity was determined in an IMAP-FP assay (Molecular Devices). Using this assay format, the potency (IC50) of each compound was determined from a 10 point (1:3 serial dilution, 3 μM starting compound concentration) titration curve using the following outlined procedure. […] Following a 15 minute compound & enzyme incubation, each reaction was initiated by the addition of 10 μL kinase buffer containing 2.45 μM ERK2 IMAP substrate peptides and 75 μM ATP. The final reaction in each well of 25 μL consists of 0.5 nM hERK2, 900 nM unlabeled peptide, 80 nM labeled-peptide, and 30 μM ATP. Phosphorylation reactions were allowed to proceed for 60 minutes and were immediately quenched by the addition of 60 μL IMAP detection beads (1:1000 dilutions) in IMAP binding buffer (Molecular Devices) with 24 mM NaCl. Plates were read on EnVision reader after 60 minutes binding equilibration using Fluorescence Polarization protocol (Perkin Elmer).
As usually defined, the IC50 is the concentration at which inhibition is half-maximal. Turning to `Cn1ncc2cc3nc(c21)CNCCCC(c1ccccc1)NC(=O)N3` (stereo not shown) [Example 31, 1-Methyl-9-phenyl-1,6,9,10,11,12,13,14-octahydro-5,15-(azeno)pyrazolo[3,4-k][1,3,8]triazacyclotetradecin-7(8H)-one], the 50% inhibitory concentration (IC50) is 832 nM.

For `Cn1ncc2cc3nc(c21)COCCCC(c1ccccc1)NC(=O)N3` (stereo not shown) [Example 32, 1-Methyl-9-phenyl-1,6,9,10,11,12-hexahydro-5,15-(azeno)pyrazolo[4,3-k][1,6,8]oxadiazacyclotetradecin-7(8H,14H)-one], it took 50.9 nM to reach half-maximal inhibition (IC50).

`CN1CCCC(c2ccccc2)NC(=O)Nc2cc3cnn(C)c3c(n2)C1` (stereo not shown) [Example 33, 1,13-Dimethyl-9-phenyl-1,6,9,10,11,12,13,14-octahydro-5,15-(azeno)pyrazolo[3,4-k][1,3,8]triazacyclotetradecin-7(8H)-one] showed an IC50 of 276 nM.

Turning to `Cn1ncc2cc3nc(c21)Cn1cc(nn1)CC(c1ccccc1)NC(=O)N3` (stereo not shown) [Example 34, 1-methyl-9-phenyl-1,6,9,10-tetrahydro-5,16-(azeno)-14,11-(metheno)pyrazolo[4,3-l][1,2,3,7,9]pentaazacyclopentadecin-7(8H,15H)-one], the IC50 amounted to 89.9 nM.

`Cn1ncc2cc3nc(c21)Cn1cc(nn1)C[C@H](c1ccccc1)NC(=O)N3` [Example 35, (9R)-1-Methyl-9-phenyl-1,6,9,10-tetrahydro-5,16-(azeno)-14,11-(metheno)pyrazolo[4,3-l][1,2,3,7,9]pentaazacyclopentadecin-7(8H,15H)-one] had an IC50 of 69.4 nM.

The compound `COCCn1ncc2cc3nc(c21)Cn1cc(nn1)CC(c1ccccc1)NC(=O)N3` (stereo not shown) [Example 36, 1-(2-Methoxyethyl)-9-phenyl-1,6,9,10-tetrahydro-5,16-(azeno)-14,11-(metheno)pyrazolo[4,3-l][1,2,3,7,9]pentaazacyclopentadecin-7(8H,15H)-one] displayed an IC50 of 416 nM.

As for `COCCCn1ncc2cc3nc(c21)Cn1cc(nn1)CC(c1ccccc1)NC(=O)N3` (stereo not shown) [Example 37, 1-(3-Methoxypropyl)-9-phenyl-1,6,9,10-tetrahydro-5,16-(azeno)-14,11-(metheno)pyrazolo[4,3-l][1,2,3,7,9]pentaazacyclopentadecin-7(8H,15H)-one], half-maximal inhibition (IC50) required 241 nM.

Turning to `Cc1c2nnn1Cc1nc(cc3cnn(C)c13)NC(=O)NC(c1ccccc1)C2` (stereo not shown) [Example 40, 1,18-Dimethyl-9-phenyl-1,6,9,10-tetrahydro-5,16-(azeno)-14,11-(metheno)pyrazolo[4,3-l][1,2,3,7,9]pentaazacyclopentadecin-7(8H,15H)-one], inhibition was half-maximal at 1950 nM (IC50).

Turning to `CCn1ncc2cc3nc(c21)/C=C\COC(C)(C)[C@H](c1ccccc1)NC(=O)N3` [Example 41, (9S,13Z)-1-Ethyl-10,10-dimethyl-9-phenyl-1,6,9,10-tetrahydro-12H-5,15-(azeno)pyrazolo [4,3-i][1,4,6]oxadiazacyclotetradecin-7(8H)-one], the half-inhibitory concentration (IC50) came to 634 nM.

Regarding `CCn1ncc2cc3nc(c21)/C=C\COC(C)(C)[C@@H](c1ccccc1)NC(=O)N3` [Example 42, (9R,13Z)-1-Ethyl-10,10-dimethyl-9-phenyl-1,6,9,10-tetrahydro-12H-5,15-(azeno)pyrazolo [4,3-i][1,4,6]oxadiazacyclotetradecin-7(8H)-one], the half-maximal inhibitory concentration (IC50) turned out to be 230 nM.

As for `CCn1ncc2cc3nc(c21)CC(=O)COC[C@H](c1ccccc1)NC(=O)N3` [Example 43, (9 S)-1-Ethyl-9-phenyl-1,6,9,10-tetrahydro-12H-5,15-(azeno)pyrazolo [4,3-i][1,4,6]oxadiazacyclotetradecine-7,13(8H,14H)-dione], half-maximal inhibition (IC50) was put at 11.2 nM.

As to `CCn1ncc2cc3nc(c21)CCCO[C@H]([C@@H](C)O)[C@H](c1ccccc1)NC(=O)N3` [Example 45, (9 S,10 S)-1-Ethyl-10-[(1R)-1-hydroxyethyl]-9-phenyl-1,6,9,10,13,14-hexahydro-12H-5,15-(azeno)pyrazolo[4,3-i][1,4,6]oxadiazacyclotetradecin-7(8H)-one], half-maximal inhibition (IC50) was put at 287 nM.

`CCn1ncc2cc3nc(c21)CCCO[C@H]([C@H](C)O)[C@H](c1ccccc1)NC(=O)N3` [Example 46, (9 S,10 S)-1-Ethyl-10-[(1 S)-1-hydroxyethyl]-9-phenyl-1,6,9,10,13,14-hexahydro-12H-5,15-(azeno)pyrazolo[4,3-i][1,4,6]oxadiazacyclotetradecin-7(8H)-one]: the IC50 is 48.4 nM.

`CCn1ncc2cc3nc(c21)CCCO[C@@H]([C@@H](C)O)[C@@H](c1ccccc1)NC(=O)N3` [Example 47, (9R,10R)-1-Ethyl-10-[(1R)-1-hydroxyethyl]-9-phenyl-1,6,9,10,13,14-hexahydro-12H-5,15-(azeno)pyrazolo[4,3-i][1,4,6]oxadiazacyclotetradecin-7(8H)-one] returned a half-inhibitory concentration (IC50) of 687 nM.

Compound `CCn1ncc2cc3nc(c21)CCCO[C@@H]([C@H](C)O)[C@@H](c1ccccc1)NC(=O)N3` [Example 48, (9R,10R)-1-Ethyl-10-[(1S)-1-hydroxyethyl]-9-phenyl-1,6,9,10,13,14-hexahydro-12H-5,15-(azeno)pyrazolo[4,3-i][1,4,6]oxadiazacyclotetradecin-7(8H)-one] displayed an IC50 of 4.11 nM.

In turn, `CCn1ncc2cc3nc(c21)C[C@@H](O)COC[C@H](c1ccc(OC)c(F)c1)NC(=O)N3` [Example 49, (9S,13R)-1-Ethyl-9-(3-fluoro-4-methoxyphenyl)-13-hydroxy-1,6,9,10,13,14-hexahydro-12H-5,15-(azeno)pyrazolo[4,3-i][1,4,6]oxadiazacyclotetradecin-7(8H)-one] showed an IC50 of 3.4 nM.

For `CCn1ncc2cc3nc(c21)C[C@H](O)COC[C@H](c1ccc(OC)c(F)c1)NC(=O)N3` [Example 50, (9S,13S)-1-Ethyl-9-(3-fluoro-4-methoxyphenyl)-13-hydroxy-1,6,9,10,13,14-hexahydro-12H-5,15-(azeno)pyrazolo[4,3-i][1,4,6]oxadiazacyclotetradecin-7(8H)-one], half-maximal inhibition (IC50) required 6.28 nM.

`CCn1ncc2cc3nc(c21)C[C@@H](O)COC[C@H](c1cccc(F)c1)NC(=O)N3` [Example 51, (9S,13R)-1-Ethyl-9-(3-fluorophenyl)-13-hydroxy-1,6,9,10,13,14-hexahydro-12H-5,15-(azeno)pyrazolo[4,3-i][1,4,6]oxadiazacyclotetradecin-7(8H)-one] came in with an IC50 of 3.91 nM.

`CCn1ncc2cc3nc(c21)C[C@H](O)COC[C@H](c1cccc(F)c1)NC(=O)N3` [Example 52, (9S,13S)-1-Ethyl-9-(3-fluorophenyl)-13-hydroxy-1,6,9,10,13,14-hexahydro-12H-5,15-(azeno)pyrazolo[4,3-i][1,4,6]oxadiazacyclotetradecin-7(8H)-one] displayed an IC50 of 14.5 nM.

Consider `CCn1ncc2cc3nc(c21)C[C@@H](O)COC[C@H](c1ccc(Cl)c(F)c1)NC(=O)N3` [Example 53, (9S,13R)-1-Ethyl-9-(4-chloro-3-fluorophenyl)-13-hydroxy-1,6,9,10,13,14-hexahydro-12H-5,15-(azeno)pyrazolo[4,3-i][1,4,6]oxadiazacyclotetradecin-7(8H)-one], for which half-maximal inhibition (IC50) was put at 3.91 nM.

Regarding `CCn1ncc2cc3nc(c21)C[C@H](O)COC[C@H](c1ccc(Cl)c(F)c1)NC(=O)N3` [Example 54, (9S,13S)-1-Ethyl-9-(4-chloro-3-fluorophenyl)-13-hydroxy-1,6,9,10,13,14-hexahydro-12H-5,15-(azeno)pyrazolo[4,3-i][1,4,6]oxadiazacyclotetradecin-7(8H)-one], the IC50 was found to be 5.09 nM.

Compound `CCn1ncc2cc3nc(c21)C[C@@H](O)COC[C@H](c1cccc(Cl)c1)NC(=O)N3` [Example 55, (9S,13R)-9-(3-chlorophenyl)-1-ethyl-13-hydroxy-1,6,9,10,13,14-hexahydro-12H-5,15-(azeno)pyrazolo[4,3-i][1,4,6]oxadiazacyclotetradecin-7(8H)-one] showed an IC50 of 3.83 nM.

`CCn1ncc2cc3nc(c21)C[C@H](O)COC[C@H](c1cccc(Cl)c1)NC(=O)N3` [Example 56, (9S,13S)-9-(3-chlorophenyl)-1-ethyl-13-hydroxy-1,6,9,10,13,14-hexahydro-12H-5,15-(azeno)pyrazolo[4,3-i][1,4,6]oxadiazacyclotetradecin-7(8H)-one] had an IC50 of 0.996 nM.

Consider `C=C1COC[C@H](c2ccccc2)NC(=O)Nc2cc3cnn(CC)c3c(n2)C1` [Example 57, (9 S)-1-ethyl-13-methylidene-9-phenyl-1,6,9,10,13,14-hexahydro-12H-5,15-(azeno)pyrazolo[4,3-i][1,4,6]oxadiazacyclotetradecin-7(8H)-one], for which the half-maximal inhibitory concentration (IC50) was 5.17 nM.

The compound `CCn1ncc2cc3nc(c21)CC(CO)COC[C@H](c1ccccc1)NC(=O)N3` (stereo partly shown) [Example 58, (9 S)-1-ethyl-13-(hydroxymethyl)-9-phenyl-1,6,9,10,13,14-hexahydro-12H-5,15-(azeno)pyrazolo[4,3-i][1,4,6]oxadiazacyclotetradecin-7(8H)-one] gave an IC50 of 5.09 nM.
